The test system of this series is Caco-2 cells. The experiment in a line: Pilot study: uptake of CoQ10 into Caco-2 cells. It is filed as in vitro ADME, human. Conditions: 1 millimolar CoQ10, two hours, control set at 100%. The protocol:
An initial pilot study established that VDMO improved the uptake of CoQ10 into Caco-2 cells. Caco-2 cells were grown for 15 days in the bottom of 24-well plastic culture dishes and then were exposed to 1 millimolar concentrations of CoQ10 mixed with 5%, 1% or no VDMO. The VDMO utilized here was as analyzed in Table 3b. Cells were returned to the incubator for two hours, then cells and media were separated by centrifugation. The cellular fraction was washed and centrifuged a second time and the amount of CoQ10 inside the cells was determined by Liquid Chromatography Mass Spectrometry. The experiment was repeated twice; the absorption in the control group was set to 100% and treatments were compared accordingly; results are shown in Table 4.

Molecules are shown by their SMILES.

`COC1=C(OC)C(=O)C(C/C=C(\C)CC/C=C(\C)CC/C=C(\C)CC/C=C(\C)CC/C=C(\C)CC/C=C(\C)CC/C=C(\C)CC/C=C(\C)CC/C=C(\C)CCC=C(C)C)=C(C)C1=O` [CoQ10 + no VDMO; Control, Coenzyme Q10 (ubiquinone; CoQ10)]: the “Absorption (%) Experiment 1” value came out at 100 ± 6.1% and the “Absorption (%) Experiment 2” value was 100 ± 0.3%.

Source of the values: patent US9119882B2, “Volatile distillate by-product of mint oil that promotes absorption and/or bioavailability of compounds of bio-medical and nutritional interest” (Flavor Liquidating (G) Corporation (new name of A.M. Todd …, priority 2008, dated 2015).
